These results are taken from US3943123A, “Novel beta-lactams and novel process” (Koninklijke Nederlandsche Gist-En Spiritusfabriek N.V., priority 1974, dated 1976).

≈ marks a conversion by molar mass, not a printed value.

Series [1] deals with Bacillus Subtilis ATCC 6633. Nature of the series: MIC by two-fold agar dilution (brain heart infusion agar), Bacillus subtilis. Conditions: ATCC6633, 18 hours at 37°C, pH 6.5 buffer, read-out: minimum inhibitory concentration (MIC). The format is cell-based. As to the method:
(§1) A stock solution of the test compounds at a concentration of […] in 0.05 molar phosphate buffer solution at a pH of 6.5 was prepared and two-fold dilutions were made with sterile buffer. 1 cc quantities of each dilution were then incorporated into 19 cc of brain heart infusion agar in sterile petri dishes. The hardened surface was then inoculated with the test organisms and it was then incubated for 18 hours at 37°C. The minimum inhibitory concentration (MIC) which is the least amount of compound completely inhibiting the test organism is determined in mg/cc.
(Agar dilution tests growth on a series of plates holding different concentrations.)

In another series the test system is test organisms. Nature of the series: anti-bacterial activity as determined by standard tests. It counts as cell-based. The following applies: in words.
From the text: Many of the β-lactams described here have anti-bacterial activity as determined by standards tests. […] The novel β-lactams of the invention are also useful intermediates for the preparation of complex substituted amino acids which can then be polymerized to form polymers. The amino acids are formed by 1,2-cleavage of the β-lactams with an alkali metal hydroxide or alkoxide such as sodium methoxide in a lower alkanol such as methanol to form the corresponding alkali metal salt of the resulting 3-aminopropionic acid which can be acidified to form the corresponding free amino acid.
as §1

In series [2] the test system is Staphylococcus Aureus A 321. Kind of series: MIC by two-fold agar dilution (brain heart infusion agar), Staphylococcus aureus A 321. It counts as cell-based. Conditions: strain A 321, 18 hours at 37°C, pH 6.5 buffer, read-out: minimum inhibitory concentration (MIC). The procedure: as §1
Series [3] has as its system Staphylococcus Aureus A 355. Kind of series: MIC by two-fold agar dilution (brain heart infusion agar), Staphylococcus aureus A 355. The format is cell-based. Conditions: strain A 355, 18 hours at 37°C, pH 6.5 buffer, read-out: minimum inhibitory concentration (MIC). The procedure:
as §1

Series [4] has as its system Staphylococcus Aureus 2160'. Kind of series: MIC by two-fold agar dilution (brain heart infusion agar), Staphylococcus aureus 2160'. The format is cell-based. Conditions: strain 2160', 18 hours at 37°C, pH 6.5 buffer, read-out: minimum inhibitory concentration (MIC). The procedure:
as §1

Series [5] in a line: solubility in various organic solvents. The following applies: cis isomer, in words. The format is physicochemical.

As to `COc1ccc(N2C(=O)C(Oc3ccccc3)C2c2ccc(C(=O)O)cc2)cc1` (stereo not drawn) [1-(p-methoxyphenyl)-3-phenoxy-4-(p-carboxyphenyl)-azetidin-2-one], the MIC in series [1], in series [2], in series [3] and in series [4] was 100 mg/mL (≈ 257 mM) each time. Further, the antibacterial activity entry in the series on test organisms was “outstanding for their antibacterial activity”.
In the case of `O=C(O)c1ccc(N2C(=O)C(Oc3ccccc3)C2c2ccco2)cc1` (stereo not drawn) [1-p-carboxyphenyl-3-phenoxy-4-α-furyl-azetidin-2-one], the MIC in series [1] was 50 mg/mL (≈ 143 mM). For the same molecule, the antibacterial activity entry in the series on test organisms is listed as “outstanding for their antibacterial activity”.
Take `O=C(O)c1ccc(N2C(=O)[C@@H](Oc3ccccc3)[C@H]2c2ccccc2O)cc1` (relative stereo) [cis-1-(p-carboxyphenyl)-3-phenoxy-4-(o-hydroxyphenyl)azetidin-2-one]: the “solubility in various organic solvents” value in series [5] was “low solubility in various organic solvents”.
With `COc1ccc(C2C(Oc3ccccc3)C(=O)N2c2ccc(C(=O)O)cc2)cc1` (stereo not drawn) [1-(p-carboxyphenyl)-3-phenoxy-4-(p-methoxyphenyl)-azetidin-2-one], the antibacterial activity result with test organisms is on record as “outstanding for their antibacterial activity”.
